Measurements reported in patent US20260216239A1 (Arizona Board of Regents on Behalf of the University of …, priority 2020, published 2026).

Tests used:
Echis leucogaster venom [1] = settings: previously characterized by this laboratory; cited from earlier work
[2] = test system: Pseudonaja textilis venom; settings: previously characterized by this laboratory; cited from earlier work
[3] = large dose of CORM-2 injected intravenously into rabbits; cited from earlier work
acute kidney injury = settings: up to 30 mg/kg of CORM-2; cited from earlier work
[4] = test system: C. scutulatus scutulatus (type B) venom; assay: Rabbit model of subcutaneous envenomation, thrombelastography and vital signs; type: in vivo, New Zealand White rabbits; settings: n=1
Excerpt: Male New Zealand White rabbits (2-3 kg) were procured from Charles River Laboratories (San Diego, CA, USA) and housed within our animal facility and allowed food and water ad libitum for at least 1 week prior to experimentation.
Rabbits were briefly restrained and had one ear closely clipped and cleaned with a 70% isopropyl alcohol pad. A 22 G plastic catheter was placed in the central ear artery and another similar catheter placed in the marginal ear vein; both catheters were connected to an end cap with a rubber diaphragm that allowed the withdrawal of blood samples and administration of medications. The animals were sedated intravenously with 1 mg/kg midazolam, with supplemental doses of 0.5-1 mg/kg provided during experimentation to maintain sedation. […] Heart rate (HR) and SpO2 were recorded at baseline and every 15 min thereafter until the end of the experiment.
An approximately 5 cm by 5 cm area of skin over either flank of the rabbit, midway between the lumbar spine and mid abdomen, was closely shaved and cleaned with a 70% isopropyl alcohol pad. A 1 cm circle was drawn with a felt tip marker in the center of this area, which served as the injection site for venom and antivenom as appropriate. After obtaining baseline HR value, SpO2 value, and the initial blood sample, venom was injected subcutaneously in the middle of the circle through a ⅝ inch long, 25 G needle. […]

Echis leucogaster venom [5] = assay: Thrombelastography in human plasma of venom procoagulant activity after isolated exposure of venom to compounds; type: biochemical; settings: venom exposed 5 min to 100 μM CORM-2 in 5% human albumin; venom 1 μg/mL in plasma
[6] = target: Mojave rattlesnake (Crotalus scutulatus scutulatus) venom type A (Crotalus scutulatus scutulatus, UniProt P62023); assay: Thrombelastography in human plasma of PLA2-dependent anticoagulant activity of venom; type: biochemical
Method: With regard to materials and methods, Mojave rattlesnake (Crotalus scutulatus scutulatus) venom type A was originally obtained from the National Natural Toxins Research Center (NNTRC) located at Texas A&M University-Kingsville, Kingsville, TX, U.S.A. A previously unthawed aliquot of this venom used in a previous work (see, Nielsen V G (2019) J Thromb Thrombolysis 48, 256-262) was dissolved in calcium-free phosphate buffered saline (PBS, Sigma-Aldrich, Saint Louis, MO, USA) at a concentration of 50 mg/ml, and had been stored at −80° C. RuCl3 as obtained from Sigma-Aldrich, Saint Louis, MO, USA. Calcium chloride (CaCl2, 200 mM) was obtained from Haemonetics Inc., Braintree, MA, USA. Lastly, pooled normal human plasma (George King Bio-Medical, Overland Park, KS, USA) anticoagulated with sodium citrate (9 parts blood to 1 part 0.105M sodium citrate) stored at −80° C. was utilized in all subsequently described experiments.
Specific volumes of subsequently described plasma and chemical additives varied by condition but summated to 360 μl. Sample composition consisted of 320 μl of plasma; 16.4 μl of PBS, 20 μl of 200 mM CaCl2, and 3.6 μl of one of five subsequently described solutions, which were placed into a disposable cup in a computer-controlled Thrombelastograph® hemostasis system (Model 5000, Haemonetics Inc., Braintree, MA, USA) at 37° C., and then rapidly mixed by moving the cup up against and then away from the plastic pin five times before leaving the mixture between the cup and pin. The following elastic modulus-based parameters previously described (see, Nielsen V G (2019) J Thromb Thrombolysis 48, 256-262; Nielsen V G, Frank N, Matika R W (2018) Biometals 31, 51-59; Nielsen V G, Frank N, Turchioe B J (2019) Blood Coagul Fibrinolysis 30, 379-384; Nielsen V G (2021) J Thromb Thrombolysis, doi: 10.1007/s11239-020-02373-4) were determined: time to maximum rate of thrombus generation (TMRTG): this is the time interval (minutes) observed prior to maximum speed of clot growth; maximum rate of thrombus generation (MRTG): this is the maximum velocity of clot growth observed (dynes/cm^2/second); and total thrombus generation (TTG, dynes/cm^2), the final viscoelastic resistance observed after clot formation. Data were collected until maximum amplitude was reached as determined by the software of the thrombelastographic system.
Experiments involving plasma exposure to RuCl3 and venom utilized the following five experimental conditions: 1) control condition (C)—no venom, 1% addition of PBS (v/v) to plasma; 2) RuCl3 in water condition (R/W)—no venom, 1% addition (v/v) of 100 μM RuCl3 dissolved in water to plasma (final concentration 1 μM); 3) RuCl3 in PBS condition (R/P)—no venom, 1% addition (v/v) of 100 μM RuCl3 dissolved in PBS to plasma (final concentration 1 μM); 4) venom condition (V)—venom addition (v/v, 125 ng/ml final concentration as previously reported) in PBS to plasma; and, 5) venom exposed to RuCl3 dissolved in PBS condition (V+R/P)—venom and 100 μM RuCl3 1% addition (v/v) in PBS to plasma. All the solutions used for these five conditions to be placed in plasma remained at room temperature for five minutes prior to addition.

[7] = venom exposed 5 min to 100 μM RuCl3 in PBS vs RuCl3 naïve venom, venom 125 ng/ml

## [C-]#[O+].[C-]#[O+].[C-]#[O+].[C-]#[O+].[C-]#[O+].[C-]#[O+].[Cl][Ru][Cl].[Cl][Ru][Cl] [CORM-2, tricarbonyldichlororuthenium(II) dimer]
Echis leucogaster venom [1]
  CORM-2/ iRM Inhibition: Yes
[2]
  CORM-2/ iRM Inhibition: Yes
[3]
  tolerability: well tolerated
Acute kidney injury
  protection against acute kidney injury: protected against injury
  tolerability: well tolerated
[4]; 10 mg/kg CORM-2 injected into venom site 5 min after venom 11.2 mg/kg
  plasmatic velocity of clot formation and strength: appeared to preserve the velocity of clot formation and strength until the third hour after venom injection
[4]; 20 mg/kg CORM-2 injected into venom site after venom 11.2 mg/kg
  plasmatic velocity of clot formation: minimally affected for the three hours after venom injection
Echis leucogaster venom [5]
  procoagulant activity of venom: uninhibited

## [Cl][Ru]([Cl])[Cl] [RuCl3, ruthenium(III) chloride]
[6]; RuCl3 dissolved in PBS, 100 μM
  neurotoxic, anticoagulant PLA2 activity: inhibited
[6]; [7]
  decrease in TMRTG values: 47%
  increase in MRTG values: 375%
  increase in TTG values: 231%
[6]; venom exposed to 100 μM RuCl3 in PBS vs control condition (no venom)
  TMRTG, MRTG or TTG values: no significant differences
